ChEMBL document CHEMBL4613321, “Discovery of Small-Molecule Stabilizers of 14-3-3 Protein-Protein Interactions via Dynamic Combinatorial Chemistry” (ACS Med Chem Lett, 2020)
Calls of active or inactive are those of the source. The calls are words filed in the database; no cut-off is given here.

How the values were obtained:
[1] = biological target: T1, 14-3-3 protein zeta/delta (Homo sapiens) (UniProt P63104); test: Competitive binding affinity to 14-3-3 zeta (unknown origin) at 200 uM in presence of 1 uM synaptopodin by SPR analysis
T1 sequence (whole entry): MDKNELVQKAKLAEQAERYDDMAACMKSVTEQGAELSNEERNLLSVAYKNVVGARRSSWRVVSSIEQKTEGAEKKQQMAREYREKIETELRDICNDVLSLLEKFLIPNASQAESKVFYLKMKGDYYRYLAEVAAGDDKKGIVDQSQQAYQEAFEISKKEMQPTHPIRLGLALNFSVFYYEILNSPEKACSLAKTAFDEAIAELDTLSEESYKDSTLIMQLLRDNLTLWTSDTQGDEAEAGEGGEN

[2] = biological target: T2, 14-3-3 protein zeta/delta (Homo sapiens, UniProt P63104); test: Binding affinity to 14-3-3 zeta (unknown origin) assessed as 14-3-3 zeta-synaptopodin interaction by fluorescence polarization assay
T2 sequence (P63104 whole entry): T1 sequence (whole entry)

[3] = biological target: T1, 14-3-3 protein zeta/delta (Homo sapiens); test: Competitive binding affinity to 14-3-3 zeta (unknown origin) at 1000 uM in presence of 1 uM synaptopodin by SPR analysis
[4] = biological target: T2, 14-3-3 protein zeta/delta; test: Binding affinity to 14-3-3 zeta (unknown origin) by SPR analysis
[5] = biological target: T1, 14-3-3 protein zeta/delta (Homo sapiens); test: Competitive binding affinity to 14-3-3 zeta (unknown origin) at 1000 uM in presence of 25 uM synaptopodin by SPR analysis
[6] = biological target: T1, 14-3-3 protein zeta/delta (Homo sapiens); test: Binding affinity to 14-3-3 zeta (unknown origin) assessed as association rate constant by SPR analysis
[7] = biological target: T1, 14-3-3 protein zeta/delta (Homo sapiens); test: Binding affinity to 14-3-3 zeta (unknown origin) assessed as half life for dissociation by SPR analysis
[8] = biological target: T1, 14-3-3 protein zeta/delta (Homo sapiens); test: Binding affinity to 14-3-3 zeta (unknown origin) assessed as dissociation rate constant by SPR analysis
[9] = biological target: T1, 14-3-3 protein zeta/delta (Homo sapiens); test: Competitive binding affinity to 14-3-3 zeta (unknown origin) at 25 uM in presence of 1 uM synaptopodin by SPR analysis
[10] = biological target: T1, 14-3-3 protein zeta/delta (Homo sapiens); test: Binding affinity to 14-3-3 zeta (unknown origin) assessed as response unit at 3.1 to 50 uM by SPR analysis

Activity [1] | EC50 [2] [µM] | Activity [3] | Kd [4] [µM] | Activity [5] | Ka [6] | T1/2 [7] [s] | Kdiss [8] | Activity [9] | RUmax [10] | SMILES
Active | 120 | Active | 1010 | Active | – | – | – | – | – | O=C(N/N=C/c1cccc(Cl)c1Cl)c1ccccc1P(=O)(O)O
– | – | – | 16 | – | 2.6 ×10³ /M/s | 17 | 4.1 ×10⁻² /s | Active | 4.6 | O=C(N/N=C/c1cccc(Br)c1)c1cc2c(s1)CCCC2
– | – | – | 15 | – | 5.8 ×10² /M/s | 80 | 8.7 ×10⁻³ /s | Active | 4.5 | O=C(N/N=C/c1cccc(Cl)c1Cl)c1cc2c(s1)CCCC2
